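Cells were grown in 96-well plates and exposed to each compound for 48 hours at five concentrations; endpoints were interpolated linearly between bracketing concentrations, or set to the highest concentration if not reached. The concentration for 50% growth inhibition is given as GI50.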 The source made the active and inactive calls. Cut-off read from the data, not from the text of the source: active = GI50 up to about 1.1 µM and inactive = higher.
What was measured:
Assay in all cases: NCI-60 cell line screen, 48 h
[1] = tested on: 786-0
[2] = tested on: A498
[3] = tested on: CAKI-1
[4] = tested on: CCRF-CEM
[5] = tested on: DU-145
[6] = tested on: HT-29
[7] = tested on: KM12
[8] = tested on: LOX IMVI
[9] = tested on: MDA-MB-435
[10] = tested on: MOLT-4
[11] = tested on: NCI-H23
[12] = tested on: NCI/ADR-RES
[13] = tested on: OVCAR-3
[14] = tested on: OVCAR-4
[15] = tested on: OVCAR-8
[16] = tested on: PC-3
[17] = tested on: SF-295
[18] = tested on: HL-60
[19] = tested on: SF-268
[20] = tested on: HCC 2998

Measured: GI50

C=CCNS(=O)(=O)c1ncnc2[nH]cnc12
inactive: [1] > 100 µM | [2] > 100 µM | [3] 26.2 µM | [4] > 100 µM | [5] > 100 µM | [6] > 100 µM | [7] > 100 µM | [8] 67.9 µM | [9] > 100 µM | [10] 14.2 µM | [11] > 100 µM | [12] > 100 µM | [13] > 100 µM | [14] > 100 µM | [15] > 100 µM | [16] > 100 µM | [17] > 100 µM

Cc1nc(O)c(Cc2ccccc2O)c(-c2ccccc2)n1
inactive: [1] > 100 µM | [2] > 100 µM | [3] > 100 µM | [4] 99.3 µM | [5] > 100 µM | [18] > 100 µM | [6] 87.5 µM | [7] > 100 µM | [8] > 100 µM | [9] > 100 µM | [10] > 100 µM | [11] > 100 µM | [12] > 100 µM | [13] > 100 µM | [14] > 100 µM | [15] > 100 µM | [16] > 100 µM | [19] > 100 µM | [17] > 100 µM

CN1CCN(CCCN2c3ccccc3Sc3ccc(C(F)(F)F)cc32)CC1
inactive: [1] 7.93 µM | [2] 13.6 µM | [3] 10.9 µM | [5] 16.4 µM | [18] 6.14 µM | [6] 2.44 µM | [7] 5.14 µM | [8] 4.57 µM | [9] 3.35 µM | [10] 4.6 µM | [11] 14.4 µM | [12] 11.6 µM | [14] 13.5 µM | [15] 15.9 µM | [16] 4.72 µM | [19] 12.4 µM | [17] 9.89 µM

CN(C)Cc1nsc(N(C)C)n1
inactive: [1] > 100 µM | [2] > 100 µM | [3] > 100 µM | [5] > 100 µM | [6] > 100 µM | [7] > 100 µM | [8] > 100 µM | [9] > 100 µM | [11] > 100 µM | [12] > 100 µM | [13] > 100 µM | [14] > 100 µM | [15] > 100 µM | [16] > 100 µM | [19] > 100 µM | [17] > 100 µM

COC(=O)c1nsc(OC)c1Cl
inactive: [1] > 100 µM | [3] > 100 µM | [4] > 100 µM | [5] > 100 µM | [20] > 100 µM | [18] > 100 µM | [6] > 100 µM | [7] > 100 µM | [8] > 100 µM | [9] > 100 µM | [10] > 100 µM | [11] > 100 µM | [12] > 100 µM | [13] > 100 µM | [14] > 100 µM | [15] > 100 µM | [16] > 100 µM | [19] > 100 µM | [17] > 100 µM

CCC1OC2C(CC=C(C)C)=C3OC(C)(O)C(C)(CC)C(=O)C3=C3OC(=O)C=C1C32 (stereo not drawn)
inactive: [1] 25.4 µM | [2] 23.6 µM | [3] 54.2 µM | [4] 29.7 µM | [5] 58.6 µM | [20] 34.8 µM | [7] 34.4 µM | [8] 12.3 µM | [9] 31.4 µM | [10] 20.2 µM | [11] 28.4 µM | [12] 27.8 µM | [14] 29.5 µM | [16] 38.8 µM | [19] 38.6 µM | [17] 47 µM

C=C(C)C1CCC2=CC(CC3(C)OC3C3=CC(C(=O)OC)=C(C1)O3)OC2=O (stereo not drawn)
inactive: [1] > 100 µM | [2] > 100 µM | [3] > 100 µM | [4] 83.2 µM | [5] > 100 µM | [18] > 10 µM | [6] > 100 µM | [7] 98.4 µM | [8] > 100 µM | [9] > 100 µM | [10] 36.9 µM | [11] > 100 µM | [12] > 100 µM | [13] > 100 µM | [15] > 100 µM | [16] > 100 µM | [19] > 100 µM | [17] > 100 µM

Cc1ccc(S(=O)(=O)N2CCCSCCSCCCSCC2)cc1
inactive: [1] > 100 µM | [4] > 100 µM | [5] > 100 µM | [20] > 100 µM | [18] > 100 µM | [6] > 100 µM | [7] > 100 µM | [8] > 100 µM | [9] > 100 µM | [10] > 100 µM | [11] > 100 µM | [12] > 100 µM | [13] > 100 µM | [14] > 100 µM | [15] > 100 µM | [16] > 100 µM | [19] > 100 µM | [17] > 100 µM

COc1ccc(C2CC(c3ccc4ccccc4c3O)=NN2C(C)=O)cc1OC (stereo not drawn)
inactive: [1] > 100 µM | [2] > 100 µM | [3] > 100 µM | [4] 18.8 µM | [5] > 100 µM | [20] > 100 µM | [6] > 100 µM | [7] > 100 µM | [9] > 100 µM | [10] 55.1 µM | [11] > 100 µM | [12] > 100 µM | [13] > 100 µM | [14] > 100 µM | [15] > 100 µM | [16] > 100 µM | [19] 61.7 µM | [17] > 100 µM

CCCc1c(OC)c(=O)c2c(OC)cc(OC)c3c4c(OC)cc(OC)c5c(=O)c(OC)c(CCC)c(c1c23)c54
inactive: [1] 13.1 µM | [2] 19.1 µM | [3] 14.6 µM | [5] 12.2 µM | [20] 20.1 µM | [18] 2.77 µM | [6] 11.4 µM | [7] 14.6 µM | [8] 7.4 µM | [9] 16 µM | [10] 7.91 µM | [11] 14.9 µM | [12] 21.2 µM | [13] 14.8 µM | [14] 13.3 µM | [15] 17.5 µM | [19] 16.1 µM | [17] 17.8 µM

CN/C(=N\c1ccc(OC)c2ccccc12)SC
inactive: [1] > 10 µM | [3] > 10 µM | [4] > 10 µM | [5] > 10 µM | [20] > 10 µM | [18] > 10 µM | [6] > 10 µM | [7] > 10 µM | [8] > 10 µM | [9] > 10 µM | [10] > 10 µM | [11] > 10 µM | [12] > 10 µM | [13] > 10 µM | [14] > 10 µM | [15] > 10 µM | [16] > 10 µM | [19] > 10 µM | [17] 7.43 µM

COc1cc2oc(=O)cc(C)c2cc1OC
inactive: [1] > 100 µM | [2] 40.2 µM | [4] > 100 µM | [5] > 100 µM | [6] > 100 µM | [7] > 100 µM | [8] > 100 µM | [9] > 100 µM | [10] > 100 µM | [11] > 100 µM | [12] > 100 µM | [13] > 100 µM | [14] > 100 µM | [15] > 100 µM | [16] > 100 µM | [19] > 100 µM | [17] > 100 µM

Cc1cccc(N/C(=C(/C(Cl)=C(Cl)Cl)[N+](=O)[O-])n2nnc3ccccc32)c1
inactive: [1] 19.5 µM | [2] 12.5 µM | [3] 17.5 µM | [4] 2.96 µM | [20] 29.2 µM | [6] 17.3 µM | [7] 14.9 µM | [9] 20.4 µM | [10] 88.3 µM | [11] 16.8 µM | [12] 19.7 µM | [13] 15.3 µM | [14] 19.5 µM | [15] 16.5 µM | [16] 16.6 µM | [19] 15.9 µM | [17] 16.9 µM

CCOC(=O)c1c(O)cc(=O)[nH]c1N1CCOCC1
inactive: [1] > 100 µM | [2] > 100 µM | [3] > 100 µM | [4] > 100 µM | [5] > 100 µM | [20] > 100 µM | [6] > 100 µM | [7] > 100 µM | [8] > 100 µM | [9] > 100 µM | [10] > 100 µM | [11] > 100 µM | [12] > 100 µM | [13] > 100 µM | [15] > 100 µM | [16] > 100 µM | [17] > 100 µM

COc1ccc(-c2cc(=O)c3c(OC)c(OC)c(OC)c(OC)c3o2)cc1 [TANGERETIN]
inactive: [1] 53.6 µM | [2] 22.8 µM | [3] 53.6 µM | [4] 82.6 µM | [5] 85.5 µM | [20] 91 µM | [18] 34.4 µM | [6] 35.2 µM | [8] 52.2 µM | [9] 50.5 µM | [10] 64.6 µM | [11] 43.3 µM | [12] 23.7 µM | [13] 42.4 µM | [14] 46.1 µM | [15] 41.2 µM | [19] > 100 µM | [17] 55.3 µM

Cn1nnc2c(C(N)=O)ncn2c1=O [TEMOZOLOMIDE]
inactive: [1] > 100 µM | [3] > 100 µM | [4] 78.3 µM | [5] > 100 µM | [20] > 100 µM | [18] 85.5 µM | [6] > 100 µM | [7] > 100 µM | [8] 82 µM | [9] > 100 µM | [10] 83.6 µM | [11] > 100 µM | [12] > 100 µM | [13] > 100 µM | [14] > 100 µM | [15] > 100 µM | [16] > 100 µM | [19] > 100 µM | [17] > 100 µM

From ChEMBL document CHEMBL1201862, “PubChem BioAssay data set” (2004)
